We go through 26 substances from patent publication US7897582B2, “Oligonucleotide compositions and methods for the modulation of the expression of B7 protein” (Isis Pharmaceuticals, Inc., priority 2003, dated 2011).

For one series, the system named is Human B7-1 mRNA. Put plainly: Human B7-1 mRNA expression in COS-7 cells, screened as in Example 4. In kind it is cell-based.
The next series deals with human B7.2 mRNA. Kind of series: Human B7.2 mRNA levels in THP-1 cells by quantitative real-time PCR (Example 27). In kind it is cell-based. Details: concentration or dose not given beside the values. From the text: In accordance with the present invention, an additional series of antisense compounds were designed to target different regions of the human B7.2 RNA, using published sequences (GenBank accession number U04343.1, incorporated herein as SEQ ID NO: 295, GenBank accession number BC040261.1, incorporated herein as SEQ ID NO: 296 and GenBank accession number NT—005543.12, a portion of which is incorporated herein as SEQ ID NO: 297). “Target site” indicates the first (5′-most) nucleotide number on the particular target sequence to which the compound binds. All compounds in Table 25 are chimeric oligonucleotides (“gapmers”) 20 nucleotides in length, composed of a central “gap” region consisting of ten 2′-deoxynucleotides, which is flanked on both sides (5′ and 3′ directions) by five-nucleotide “wings”. The wings are composed of 2′-methoxyethyl (2′-MOE)nucleotides. The internucleoside (backbone) linkages are phosphorothioate (P═S) throughout the oligonucleotide. All cytidine residues are 5-methylcytidines. The compounds were analyzed for their effect on human B7.2 mRNA levels in THP-1 cells by quantitative real-time PCR as described in other examples herein. Data are averages from three experiments. If present, “N.D.” indicates “no data”.

Strand notation (5' to 3'): a small letter for the sugar, then the base; units joined by * are phosphorothioate-linked, units joined directly phosphodiester-linked; [ ] holds rarer units or linkages, { } end groups; capitals alone tell only the bases. e = 2'-O-(2-methoxyethyl) (MOE); [5mC] = 5-methylcytosine; d = 2'-deoxy (DNA)

In the case of “22321 (eG*eA*e[5mC]*e[5mC]*eA*dG*d[5mC]*d[5mC]*dA*dG*d[5mC]*dA*d[5mC]*d[5mC]*dA*eA*eG*eA*eG*e[5mC]; antisense) [compound 22321]”, in the series on Human B7-1 mRNA (human B7-1 mRNA, Table 7), the “% mRNA EXPRESSION” value came to 57% and the “% mRNA INHIBITION” value was determined as 43%.
For “22326 (antisense eG*eT*eA*eT*eG*dT*dG*d[5mC]*d[5mC]*d[5mC]*dT*d[5mC]*dG*dT*d[5mC]*eA*eG*eA*eT*eG) [compound 22326]”, in the series on Human B7-1 mRNA (human B7-1 mRNA, Table 7), the “% mRNA EXPRESSION” value was determined as 62% and the “% mRNA INHIBITION” value is 38%.
The matching figures for “22328 (antisense eG*eG*eA*eA*eG*dT*d[5mC]*dA*dG*d[5mC]*dT*dT*dT*dG*dA*e[5mC]*eT*eG*eA*eT) [compound 22328]”: 64% and 36%.
With “22329 (antisense e[5mC]*e[5mC]*eT*e[5mC]*e[5mC]*dA*dG*dA*dG*dG*dT*dT*dG*dA*dG*e[5mC]*eA*eA*eA*eT) [compound 22329]”, in the series with Human B7-1 mRNA (human B7-1 mRNA, Table 7), the “% mRNA EXPRESSION” value is listed as 59% and the “% mRNA INHIBITION” value came to 41%.
The matching figures for “22330 (antisense e[5mC]*e[5mC]*eA*eA*e[5mC]*d[5mC]*dA*dG*dG*dA*dG*dA*dG*dG*dT*eG*eA*eG*eG*e[5mC]) [compound 22330]”: 54% and 46%.
For “22331 (antisense eG*eA*eA*eG*e[5mC]*dT*dG*dT*dG*dG*dT*dT*dG*dG*dT*eT*eG*eT*e[5mC]*eA) [compound 22331]”, in that order: 62% and 38%.
In the case of “22332 (antisense eT*eT*eG*eA*eA*dG*dG*dT*d[5mC]*dT*dG*dA*dT*dT*d[5mC]*eA*e[5mC]*eT*e[5mC]*eT) [compound 22332]”, in the series with Human B7-1 mRNA (human B7-1 mRNA, Table 7), the “% mRNA EXPRESSION” value turned out to be 67% and the “% mRNA INHIBITION” value was found to be 33%.
The matching figures for “22333 (antisense eA*eA*eG*eG*eT*dA*dA*dT*dG*dG*d[5mC]*d[5mC]*d[5mC]*dA*dG*eG*eA*eT*eG*eG) [compound 22333]”: 73% and 27%.
Regarding “22336 (antisense eA*eG*e[5mC]*e[5mC]*e[5mC]*d[5mC]*dT*dT*dG*d[5mC]*dT*dT*d[5mC]*dT*dG*e[5mC]*eG*eG*eA*e[5mC]) [compound 22336]”, in the series with Human B7-1 mRNA (human B7-1 mRNA, Table 7), the “% mRNA EXPRESSION” value is listed as 55% and the “% mRNA INHIBITION” value was 45%.
Consider “22339 (antisense eG*eT*eA*eA*eA*dA*d[5mC]*dA*dG*d[5mC]*dT*dT*dA*dA*dA*eT*eT*eT*eG*eT) [compound 22339]”, for which, in the series on Human B7-1 mRNA (human B7-1 mRNA, Table 7), the “% mRNA EXPRESSION” value worked out at 69% and the “% mRNA INHIBITION” value was 31%.
For “22340 (antisense eA*eG*eA*eA*eG*dA*dG*dG*dT*dT*dA*d[5mC]*dA*dT*dT*eA*eA*eG*e[5mC]*eA) [compound 22340]”, in that order: 71% and 29%.
The matching figures for “22341 (antisense eA*eG*eA*eT*eA*dA*dT*dG*dA*dA*dT*dT*dG*dG*d[5mC]*eT*eG*eA*e[5mC]*eA) [compound 22341]”: 59% and 41%.
For “24733 (antisense eG*e[5mC]*eG*eT*e[5mC]*dA*dT*d[5mC]*dA*dT*d[5mC]*d[5mC]*dG*d[5mC]*dA*e[5mC]*e[5mC]*eA*eT*e[5mC]) [compound 24733]”, the “% mRNA EXPRESSION” value with Human B7-1 mRNA (10 nM, COS-7, Table 8) worked out at 90%; in the series on Human B7-1 mRNA (30 nM, COS-7, Table 8), 91%; with Human B7-1 mRNA (100 nM, COS-7, Table 8), 90%; with Human B7-1 mRNA (300 nM, COS-7, Table 8) it was 80%. The “% mRNA INHIBITION” value is given as 10% in the series with Human B7-1 mRNA (10 nM, COS-7, Table 8); 9% with Human B7-1 mRNA (30 nM, COS-7, Table 8); 10% in the series with Human B7-1 mRNA (100 nM, COS-7, Table 8); 20% with Human B7-1 mRNA (300 nM, COS-7, Table 8).
In the case of “24734 (antisense e[5mC]*eG*eT*eT*eG*d[5mC]*dT*dT*dG*dT*dG*d[5mC]*d[5mC]*dG*dA*e[5mC]*eA*eG*eT*eG) [compound 24734]”, the “% mRNA EXPRESSION” value in the series on Human B7-1 mRNA (10 nM, COS-7, Table 8) was 94%; with Human B7-1 mRNA (30 nM, COS-7, Table 8) it was 96%; in the series on Human B7-1 mRNA (100 nM, COS-7, Table 8) it was 94%; with Human B7-1 mRNA (300 nM, COS-7, Table 8) it was 84%. Besides, the “% mRNA INHIBITION” value in the series with Human B7-1 mRNA (10 nM, COS-7, Table 8) came to 6%; in the series on Human B7-1 mRNA (30 nM, COS-7, Table 8) it was 4%; in the series with Human B7-1 mRNA (100 nM, COS-7, Table 8), 6%; in the series with Human B7-1 mRNA (300 nM, COS-7, Table 8), 16%.
As for “24735 (antisense eG*e[5mC]*eT*e[5mC]*eA*d[5mC]*dG*dA*dA*dG*dA*dA*d[5mC]*dA*d[5mC]*e[5mC]*eT*eT*e[5mC]*e[5mC]) [compound 24735]”, the “% mRNA EXPRESSION” value in the series with Human B7-1 mRNA (10 nM, COS-7, Table 8) stood at 100%; in the series on Human B7-1 mRNA (30 nM, COS-7, Table 8) it was 95%; in the series with Human B7-1 mRNA (100 nM, COS-7, Table 8), 81%; in the series with Human B7-1 mRNA (300 nM, COS-7, Table 8), 75%. The “% mRNA INHIBITION” value in the series on Human B7-1 mRNA (30 nM, COS-7, Table 8) was 5%; with Human B7-1 mRNA (100 nM, COS-7, Table 8), 19%; in the series with Human B7-1 mRNA (300 nM, COS-7, Table 8), 25%.
As for “323624 (antisense eG*eT*eT*eA*e[5mC]*dT*d[5mC]*dA*dG*dT*d[5mC]*d[5mC]*d[5mC]*dA*dT*eA*eG*eT*eG*e[5mC]) [compound 323624]”, the “% INHIB (inhibition of human B7.2 mRNA levels)” value with human B7.2 mRNA came out at 59%.
The same measure, in the same setting: the same measure for “323625 (antisense e[5mC]*eA*eA*eA*eG*dA*dG*dA*dA*dT*dG*dT*dT*dA*d[5mC]*eT*e[5mC]*eA*eG*eT) [compound 323625]”: 21%; for “323626 (antisense e[5mC]*e[5mC]*eA*eT*e[5mC]*dA*d[5mC]*dA*dA*dA*dG*dA*dG*dA*dA*eT*eG*eT*eT*eA) [compound 323626]”: 32%; for “323627 (antisense eG*eG*eA*eA*eG*dG*d[5mC]*d[5mC]*dA*dT*d[5mC]*dA*d[5mC]*dA*dA*eA*eG*eA*eG*eA) [compound 323627]”: 54%.
On the same count and under the same terms, the same measure for “323628 (antisense eG*eA*eG*e[5mC]*eA*dG*dG*dA*dA*dG*dG*d[5mC]*d[5mC]*dA*dT*e[5mC]*eA*e[5mC]*eA*eA) [compound 323628]”: 44%; for “323629 (antisense e[5mC]*e[5mC]*eA*eG*eA*dG*dA*dG*d[5mC]*dA*dG*dG*dA*dA*dG*eG*e[5mC]*e[5mC]*eA*eT) [compound 323629]”: 36%.
Same read-out and setting: in the case of “323630 (antisense eA*eA*eA*eT*eA*dA*dG*d[5mC]*dT*dT*dG*dA*dA*dT*d[5mC]*eT*eT*e[5mC]*eA*eG) [compound 323630]” it was 22%.
“323631 (antisense eA*eG*eT*e[5mC]*eT*d[5mC]*dA*dT*dT*dG*dA*dA*dA*dT*dA*eA*eG*e[5mC]*eT*eT) [compound 323631]”: the “% INHIB (inhibition of human B7.2 mRNA levels)” value with human B7.2 mRNA amounted to 56%.
Same read-out and setting: in the case of “323632 (antisense eA*eG*eG*eT*e[5mC]*dT*dG*d[5mC]*dA*dG*dT*d[5mC]*dT*d[5mC]*dA*eT*eT*eG*eA*eA) [compound 323632]” it was 41%; in that of “323633 (antisense e[5mC]*eT*eA*e[5mC]*eT*dA*dG*d[5mC]*dT*d[5mC]*dA*d[5mC]*dT*d[5mC]*dA*eG*eG*e[5mC]*eT*eT) [compound 323633]”, 50%; in that of “323634 (antisense eA*eA*eA*eT*eA*d[5mC]*dT*dA*d[5mC]*dT*dA*dG*d[5mC]*dT*d[5mC]*eA*e[5mC]*eT*e[5mC]*eA) [compound 323634]”, 30%.
